The source of these data is patent US5663331A, “Cephalosporin compounds” (Il-Dong Pharm. Co., Ltd., priority 1992, dated 1997).

SMILES strings stand for the structures. In brackets after ≈: the same amount, converted by molar mass.

Common to all, as to format: cell-based
Test [1] deals with Esherichia coli ATCC 25922. Put plainly: MIC, two-fold dilution method, Esherichia coli ATCC 25922. The following applies: Muller Hinton Broth, 10^6 CFU per ml, 37° C., 18 to 20 hours; for MIC: read-out: Antibacterial Activity (MIC). As to the method: (§1) In order to illustrate the usefulness of the invented compounds, the minimal inhibitory concentrations-(MIC) thereof against standard strains were determined and compared with Cefotaxime, a known compound. Also, the in vitro antibacterial activity was determined by a two-fold dilution method as described below: That is, the two-fold serial dilutions of the compound were made and dispersed in Muller Hinton Broth medium. Standard test strain which had the 10^6 CFU per ml was inoculated on the medium, and was incubated at 37° C. for 18 to 20 hours.

The test system of test [2] is Staphylococcus aureus ATCC 65389. Nature of the test: MIC, two-fold dilution method, Staphylococcus aureus ATCC 65389. The conditions noted are these: 10^6 CFU per ml, 37° C., 18 to 20 hours; for MIC: ATCC65389, Muller Hinton Broth, read-out: Antibacterial Activity (MIC); for Antibacterial Activity (MIC): Muller Hinton Broth. The protocol:
as §1

Test [3] deals with Klebsiella pneumoniae ATCC 10031. Nature of the test: MIC, two-fold dilution method, Klebsiella pneumoniae ATCC 10031. The conditions noted are these: 10^6 CFU per ml, 37° C., 18 to 20 hours; for MIC: ATCC10031, Muller Hinton Broth, read-out: Antibacterial Activity (MIC); for Antibacterial Activity (MIC): Muller Hinton Broth. As to the method: as §1
The test system of test [4] is Staphylococcus epidermidis ATCC 12228. Nature of the test: MIC, two-fold dilution method, Staphylococcus epidermidis ATCC 12228. The conditions noted are these: 10^6 CFU per ml, 37° C., 18 to 20 hours; for MIC: ATCC12228, Muller Hinton Broth, read-out: Antibacterial Activity (MIC); for Antibacterial Activity (MIC): Muller Hinton Broth. As to the method: as §1
The subject of test [5] is Streptococcus faecalis ATCC 10541. Put plainly: MIC, two-fold dilution method, Streptococcus faecalis ATCC 10541. The conditions noted are these: 10^6 CFU per ml, 37° C., 18 to 20 hours; for MIC: Enterococcus faecalis, ATCC10541, Muller Hinton Broth, read-out: Antibacterial Activity (MIC); for Antibacterial Activity (MIC): Muller Hinton Broth. The protocol: as §1
Test [6] relates to Pseudomonas aeurginosa NCTC 10490. Nature of the test: MIC, two-fold dilution method, Pseudomonas aeurginosa NCTC 10490. The conditions noted are these: 10^6 CFU per ml, 37° C., 18 to 20 hours; for MIC: NCTC10490, Muller Hinton Broth, read-out: Antibacterial Activity (MIC); for Antibacterial Activity (MIC): Muller Hinton Broth. As to the method:
as §1

In test [7] the test system is Bacillus subtilis ATCC 6633. Put plainly: MIC, two-fold dilution method, Bacillus subtilis ATCC 6633. The following applies: 10^6 CFU per ml, 37° C., 18 to 20 hours; for MIC: ATCC6633, Muller Hinton Broth, read-out: Antibacterial Activity (MIC); for Antibacterial Activity (MIC): Muller Hinton Broth. The protocol: as §1

Usually MIC stands for the lowest concentration that inhibits growth of the organism. On to `CC(C)(O/N=C(\C(=O)NC1C(=O)N2C(C(=O)[O-])=C(CSc3cc[n+](C4CC4)c4cc(N5CCNCC5)c(F)cc34)CS[C@H]12)c1csc(N)n1)C(=O)O` (stereo partly drawn) [Compound I-57, 7-[(Z)-2-(2-aminothiazol-4-yl)-2-(2-carboxyprop-2-oxyimino)acetamido]-3-(1-cyclopropyl-6-fluoro-7-piperazinylquinolinium-4-yl)thiomethyl-3-cephem-4-carboxylate], for which the MIC in test [1] is 0.78 µg/mL (≈ 1.01 µM); in test [2], 6.25 µg/mL (≈ 8.11 µM); in test [3] it was 0.39 µg/mL (≈ 0.506 µM); in test [4], 6.25 µg/mL (≈ 8.11 µM); in test [5], 1.56 µg/mL (≈ 2.02 µM); in test [6] it was 0.78 µg/mL (≈ 1.01 µM). Moreover, the MIC in test [7] was found to be 0.78 µg/mL (≈ 1.01 µM).
`CCN1CCN(c2cc3c(cc2F)c(SCC2=C(C(=O)[O-])N4C(=O)C(NC(=O)/C(=N\OC(C)(C)C(=O)O)c5csc(N)n5)C4SC2)cc[n+]3CC)CC1` (stereo not drawn) [Compound I-61, 7-[(Z)-2-(2-aminothiazol-4-yl)-2-(2-carboxyprop-2-oxyimino)acetamido]-3-[1-ethyl-6-fluoro-7-(1-ethylpiperazinyl)quinolinium-4-yl]thiomethyl-3-cephem-4-carboxylate]: the minimum inhibitory concentration (MIC) in test [1] worked out at 3.13 µg/mL (≈ 3.98 µM); in test [2], 1.56 µg/mL (≈ 1.98 µM); in test [3] it was 3.13 µg/mL (≈ 3.98 µM); in test [4] it was 1.56 µg/mL (≈ 1.98 µM); in test [5], 0.39 µg/mL (≈ 0.496 µM); in test [6] it was 1.56 µg/mL (≈ 1.98 µM). Also, the MIC in test [7] was 3.13 µg/mL (≈ 3.98 µM).
Consider `C=CCO/N=C(\C(=O)NC1C(=O)N2C(C(=O)[O-])=C(CSc3cc[n+](CC=C)c4cc(N5CCN(C)CC5)c(F)cc34)CSC12)c1csc(N)n1` (stereo not drawn) [Compound I-34, 7-[(Z)-2-(2-aminothiazol-4-yl)-2-(allyloxyimino)acetamido]-3-[1-allyl-6-fluoro-7-(N-methylpiperazinyl)quinolinium-4-yl]thiomethyl-3-cephem-4-carboxylate], for which the MIC turned out to be 3.13 µg/mL (≈ 4.24 µM) in test [1]; 1.56 µg/mL (≈ 2.11 µM) in test [2]; 1.56 µg/mL (≈ 2.11 µM) in test [3]; 1.56 µg/mL (≈ 2.11 µM) in test [4]; 0.78 µg/mL (≈ 1.06 µM) in test [5]; 6.25 µg/mL (≈ 8.46 µM) in test [6]. Moreover, in test [7], the MIC is 0.78 µg/mL (≈ 1.06 µM).
As for `C=CCO/N=C(\C(=O)NC1C(=O)N2C(C(=O)[O-])=C(CSc3cc[n+](C)c4cc(N5CCN(C)CC5)c(F)cc34)CSC12)c1csc(N)n1` (stereo not drawn) [Compound I-22, 7-[(Z)-2-(2-aminothiazol-4-yl)-2-(allyloxyimino)acetamido]-3-[1-methyl-6-fluoro-7-(N-methylpiperazinyl)quinolinium-4-yl]thiomethyl-3-cephem-4-carboxylate], the MIC was 6.25 µg/mL (≈ 8.77 µM) in test [1]; 0.2 µg/mL (≈ 0.281 µM) in test [2]; 0.39 µg/mL (≈ 0.547 µM) in test [3]; 0.1 µg/mL (≈ 0.14 µM) in test [4]; 0.013 µg/mL (≈ 0.0182 µM) in test [5]; 3.13 µg/mL (≈ 4.39 µM) in test [6]. In test [7], the MIC is 0.39 µg/mL (≈ 0.547 µM).
On to `CC[n+]1ccc(SCC2=C(C(=O)[O-])N3C(=O)C(NC(=O)/C(=N\OC)c4csc(N)n4)C3SC2)c2cc(F)c(N3CCNCC3)cc21` (stereo not drawn) [Compound I-9, 7-[(Z)-2-(2-aminothiazol-4-yl)-2-(methoxyimino)acetamido]-3-(1-ethyl-6-fluoro-7-piperazinylquinolinum-4-yl)thiomethyl-3-cephem-4-carboxylate], for which the MIC stood at 1.56 µg/mL (≈ 2.27 µM) in test [1]; 0.2 µg/mL (≈ 0.291 µM) in test [2]; 0.78 µg/mL (≈ 1.14 µM) in test [3]; 0.2 µg/mL (≈ 0.291 µM) in test [4]; 0.1 µg/mL (≈ 0.146 µM) in test [5]; 3.13 µg/mL (≈ 4.56 µM) in test [6]. Further, the MIC in test [7] turned out to be 0.1 µg/mL (≈ 0.146 µM).
As for `C=CCO/N=C(\C(=O)NC1C(=O)N2C(C(=O)[O-])=C(CSc3cc[n+](CC)c4cc(N5CCNCC5C)c(F)cc34)CS[C@H]12)c1csc(N)n1` (stereo partly drawn) [Compound I-32, 7-[(Z)-2-(2-aminothiazol-4-yl)-2-(allyloxyimino)acetamido]-3-[1-ethyl-6-fluoro-7-(2-methylpiperazinyl)quinolinium-4-yl]thiomethyl-3-cephem-4-carboxylate], the “Antibacterial Activity (MIC)” value in test [1] turned out to be 0.78 µg/mL; in test [2] it was 0.39 µg/mL; in test [3], 0.39 µg/mL; in test [4], 0.78 µg/mL; in test [5] it was 0.39 µg/mL; in test [6] it was 1.56 µg/mL. Also, in test [7], the “Antibacterial Activity (MIC)” value turned out to be 0.39 µg/mL.
For the compound `C=CCO/N=C(\C(=O)NC1C(=O)N2C(C(=O)[O-])=C(CSc3cc[n+](C)c4cc(N5CCNCC5C)c(F)cc34)CS[C@H]12)c1csc(N)n1` (stereo partly drawn) [Compound I-24, 7-[(Z)-2-(2-aminothiazol-4-yl)-2-(allyloxyimino)acetamido]-3-[1-methyl-6-fluoro-7-(2-methylpiperazinyl)quinolinium-4-yl]thiomethyl-3-cephem-4-carboxylate], the “Antibacterial Activity (MIC)” value was found to be 1.56 µg/mL in test [1]; 0.1 µg/mL in test [2]; 0.2 µg/mL in test [3]; 0.1 µg/mL in test [4]; 0.1 µg/mL in test [5]; 0.78 µg/mL in test [6]. Besides, the “Antibacterial Activity (MIC)” value in test [7] was 0.2 µg/mL.
As for `C#CCO/N=C(\C(=O)NC1C(=O)N2C(C(=O)[O-])=C(CSc3cc[n+](CC=C)c4cc(N5CCNCC5C)c(F)cc34)CS[C@H]12)c1csc(N)n1` (stereo partly drawn) [Compound I-52, 7-[(Z)-2-(2-aminothiazol-4-yl)-2-(propargyloxyimino)acetamido]-3-[1-allyl-6-fluoro-7-(2-methylpiperazinyl)quinolinium-4-yl]thiomethyl-3-cephem-4-carboxylate], the “Antibacterial Activity (MIC)” value in test [1] amounted to 0.78 µg/mL; in test [2], 3.13 µg/mL; in test [3], 1.56 µg/mL; in test [4] it was 1.56 µg/mL; in test [5], 0.78 µg/mL; in test [6], 1.56 µg/mL. Also, the “Antibacterial Activity (MIC)” value in test [7] came out at 0.39 µg/mL.
Take `CO/N=C(\C(=O)NC1C(=O)N2C(C(=O)[O-])=C(CSc3cc[n+](C)c4cc(N5CCNCC5)c(F)cc34)CSC12)c1csc(N)n1` (stereo not drawn) [Compound I-1, 7-[(Z)-2-(2-aminothiazol-4-yl)-2-(methoxyimino)acetamide]-3-(1-methyl-6-fluoro-7-piperazinylquinolinium-4-yl)thiomethyl-3-cephem-4-carboxylate]: the MIC in test [1] came to 0.78 µg/mL (≈ 1.16 µM); in test [2], 0.2 µg/mL (≈ 0.297 µM); in test [3], 0.2 µg/mL (≈ 0.297 µM); in test [4] it was 0.1 µg/mL (≈ 0.149 µM); in test [5], 0.05 µg/mL (≈ 0.0743 µM); in test [6], 1.56 µg/mL (≈ 2.32 µM). Further, the MIC in test [7] came to 0.2 µg/mL (≈ 0.297 µM).
Turning to `C=CC[n+]1ccc(SCC2=C(C(=O)[O-])N3C(=O)C(NC(=O)/C(=N\OC)c4csc(N)n4)[C@H]3SC2)c2cc(F)c(N3CCNCC3)cc21` (stereo partly drawn) [Compound I-13, 7-[(Z)-2-(2-aminothiazol-4-yl)-2-(methoxyimino)acetamido]-3-(1-allyl-6-fluoro-7-piperazinylquinolinium-4-yl)thiomethyl-3-cephem-4-carboxylate], the MIC turned out to be 3.13 µg/mL (≈ 4.48 µM) in test [1]; 1.56 µg/mL (≈ 2.23 µM) in test [2]; 0.78 µg/mL (≈ 1.12 µM) in test [3]; 1.56 µg/mL (≈ 2.23 µM) in test [4]; 0.78 µg/mL (≈ 1.12 µM) in test [5]; 1.56 µg/mL (≈ 2.23 µM) in test [6]. The MIC in test [7] came out at 0.39 µg/mL (≈ 0.558 µM).
Regarding `C=CCO/N=C(\C(=O)NC1C(=O)N2C(C(=O)[O-])=C(CSc3cc[n+](CC=C)c4cc(N5CCNCC5)c(F)cc34)CS[C@H]12)c1csc(N)n1` (stereo partly drawn) [Compound I-33, 7-[(Z)-2-(2-aminothiazol-4-yl)-2-(allyloxyimino)acetamido]-3-(1-allyl-6-fluoro-7-piperazinylquinolinium-4-yl)thiomethyl-3-cephem-4-carboxylate], the MIC in test [1] came out at 3.13 µg/mL (≈ 4.32 µM); in test [2], 0.78 µg/mL (≈ 1.08 µM); in test [3], 1.56 µg/mL (≈ 2.15 µM); in test [4], 1.56 µg/mL (≈ 2.15 µM); in test [5], 0.39 µg/mL (≈ 0.538 µM); in test [6] it was 3.13 µg/mL (≈ 4.32 µM). Moreover, the MIC in test [7] was determined as 0.78 µg/mL (≈ 1.08 µM).
In the case of `C=CCO/N=C(\C(=O)NC1C(=O)N2C(C(=O)[O-])=C(CSc3cc[n+](CC)c4cc(N5CCNCC5)c(F)cc34)CS[C@H]12)c1csc(N)n1` (stereo partly drawn) [Compound I-29, 7-[(Z)-2-(2-aminothiazol-4-yl)-2-(allyloxyimino)acetamido]-3-(1-ethyl-6-fluoro-7-piperazinylquinolinium-4-yl)thiomethyl-3-cephem-4-carboxylate], the MIC was found to be 1.56 µg/mL (≈ 2.19 µM) in test [1]; 0.78 µg/mL (≈ 1.09 µM) in test [2]; 0.39 µg/mL (≈ 0.547 µM) in test [3]; 0.78 µg/mL (≈ 1.09 µM) in test [4]; 0.39 µg/mL (≈ 0.547 µM) in test [5]; 3.13 µg/mL (≈ 4.39 µM) in test [6]. Further, the MIC in test [7] is 0.39 µg/mL (≈ 0.547 µM).
